# Columns and labels:
# [1] = molecular target: T1, MukB (Escherichia coli, UniProt P22523); test: magnetic bead DNA bridging pull-down; assay type: biochemical; conditions: 20 mM HEPES pH 7.7, 50 mM NaCl, 2 mM MgCl2, 5% glycerol, 1 mM DTT
# [2] = molecular target: T1, MukB; test: SPR; assay type: binding; conditions: 25 uM compound, 20 mM HEPES-KOH pH 7.0, 50 mM NaCl, 0.5% DMSO
# T1 sequence (P22523 whole entry): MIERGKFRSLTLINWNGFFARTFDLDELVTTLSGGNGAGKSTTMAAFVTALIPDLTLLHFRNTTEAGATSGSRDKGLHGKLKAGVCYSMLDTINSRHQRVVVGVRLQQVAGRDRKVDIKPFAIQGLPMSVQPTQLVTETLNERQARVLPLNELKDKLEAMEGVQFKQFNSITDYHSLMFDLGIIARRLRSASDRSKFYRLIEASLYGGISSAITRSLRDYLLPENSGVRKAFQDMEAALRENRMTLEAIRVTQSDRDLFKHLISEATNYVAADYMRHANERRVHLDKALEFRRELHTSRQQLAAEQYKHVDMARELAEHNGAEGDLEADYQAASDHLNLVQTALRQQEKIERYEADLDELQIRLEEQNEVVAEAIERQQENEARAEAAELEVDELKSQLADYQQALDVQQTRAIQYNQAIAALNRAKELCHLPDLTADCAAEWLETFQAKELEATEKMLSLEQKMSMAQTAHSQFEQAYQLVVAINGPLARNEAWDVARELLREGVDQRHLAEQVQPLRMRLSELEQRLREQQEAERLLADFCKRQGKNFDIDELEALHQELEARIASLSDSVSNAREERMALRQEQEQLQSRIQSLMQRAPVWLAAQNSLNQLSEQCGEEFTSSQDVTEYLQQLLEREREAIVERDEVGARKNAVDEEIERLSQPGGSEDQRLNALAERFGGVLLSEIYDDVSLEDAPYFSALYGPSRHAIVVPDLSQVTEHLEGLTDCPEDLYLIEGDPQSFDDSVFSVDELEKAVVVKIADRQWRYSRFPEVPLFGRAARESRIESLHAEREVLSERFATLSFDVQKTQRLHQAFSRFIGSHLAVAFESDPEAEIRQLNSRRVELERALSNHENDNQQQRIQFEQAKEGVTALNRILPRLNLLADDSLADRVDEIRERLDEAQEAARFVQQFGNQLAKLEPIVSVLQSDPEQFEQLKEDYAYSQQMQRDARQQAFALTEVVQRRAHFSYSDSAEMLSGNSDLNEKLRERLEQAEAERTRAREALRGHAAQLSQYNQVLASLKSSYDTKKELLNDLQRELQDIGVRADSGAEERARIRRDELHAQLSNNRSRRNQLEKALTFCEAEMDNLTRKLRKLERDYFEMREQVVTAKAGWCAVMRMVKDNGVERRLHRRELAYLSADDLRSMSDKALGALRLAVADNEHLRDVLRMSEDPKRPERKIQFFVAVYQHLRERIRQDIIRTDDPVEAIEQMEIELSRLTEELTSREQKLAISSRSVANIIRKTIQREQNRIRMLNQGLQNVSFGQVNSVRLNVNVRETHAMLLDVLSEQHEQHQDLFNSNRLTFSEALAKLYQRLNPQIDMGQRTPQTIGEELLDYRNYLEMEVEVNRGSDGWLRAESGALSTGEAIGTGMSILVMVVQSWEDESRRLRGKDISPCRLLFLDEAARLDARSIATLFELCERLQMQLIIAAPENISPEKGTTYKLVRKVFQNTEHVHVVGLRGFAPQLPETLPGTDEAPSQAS
Compound,inhibition of DNA bridging [1],"SPR (Biacore, MukB immobilised on CM5 chip) [2]"
"COc1cc(C)cc2c(-c3c(O)cc(O)c4c3C[C@H](C)N[C@H]4C)cc(-c3cc(-c4c(O)cc(O)c5c4C[C@H](C)N[C@H]5C)c4cc(C)cc(OC)c4c3O)c(O)c12 [NSC661755, Michellamine B]","Michellamine B, NSC71795 and, to a smaller degree, NSC45383, inhibit MukB mediated DNA bridging",
COC1=C(N)C(=O)c2nc(-c3nc(C(=O)O)c(C)c(-c4ccc(OC)c(OC)c4O)c3N)ccc2C1=O [NSC45383],"Michellamine B, NSC71795 and, to a smaller degree, NSC45383, inhibit MukB mediated DNA bridging",A much weaker binding could be detected for NSC71795 (ellipticine) and NSC45383 (streptonigrin)
Cc1c2ccncc2c(C)c2c1[nH]c1ccccc12 [NSC71795],"Michellamine B, NSC71795 and, to a smaller degree, NSC45383, inhibit MukB mediated DNA bridging",A much weaker binding could be detected for NSC71795 (ellipticine) and NSC45383 (streptonigrin)

# From PMC6467689 (ACS infectious diseases, 2018)
